{
  "source": "patent US9676704B2",
  "about": "“Pesticidal compositions and processes related thereto” (Dow AgroSciences LLC, priority 2014, dated 2017)",
  "key": {"[1]": {"test_system": "Beet Armyworm (BAW)", "assay": "Bioassays on BAW, 128-well diet tray assay", "assay_type": "in vivo", "conditions": "Spodoptera exigua, 168 h, read-out: BAW % Control (or Mortality) rating", "how_it_was_run": "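Test compound was applied at 50 μg/cm^2 in 90:10 acetone-water to the artificial diet surface and dried, with eight wells per compound. One to five second-instar beet armyworm larvae were placed per well and held at 25 °C, 14:10 light-dark, for five to seven days. Percent mortality was averaged over the wells.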"}, "[2]": {"test_system": "Green Peach Aphid (GPA)", "assay": "Bioassays on Green Peach Aphid, cabbage seedling foliar spray", "assay_type": "in vivo", "conditions": "Myzus persicae, foliar, 72 h, read-out: GPA % Control (or Mortality) rating", "description": "Cabbage seedlings grown in 3-inch pots, with 2-3 small (3-5 cm) true leaves, were used as test substrate. The seedlings were infested with 20-50 GPA (wingless adult and nymph stages) one day prior to chemical application. Four pots with individual seedlings were used for each treatment. Test compounds (2 mg) were dissolved in 2 mL of acetone/MeOH (1:1) solvent, forming stock solutions of 1000 ppm test compound. The stock solutions were diluted 5× with 0.025% Tween 20 in water to obtain the solution at 200 ppm test compound. A hand-held aspirator-type sprayer was used for spraying a solution to both sides of […] leaves until runoff. Reference plants (solvent check) were sprayed with the diluent only containing 20% by volume of acetone/MeOH (1:1) solvent. Treated plants were held in a holding room for three days at approximately 25° C. and ambient relative humidity (RH) prior to grading. Evaluation was conducted by counting the number of live aphids per plant under a microscope. Percent Control was measured by using Abbott's correction formula (W. S. Abbott, “A Method of Computing the Effectiveness of an Insecticide” J. Econ. Entomol. 18 (1925), pp. 265-267) as follows. Corrected % Control=100*(X−Y)/X where X=No. of live aphids on solvent check plants and Y=No. of live aphids on treated plants. The results are indicated in the table entitled “Table ABC: Assay Results (F)” and “Table ABCD: Assay Results (C)” (See Table Section)."}, "[3]": {"test_system": "Yellow Fever Mosquito (YFM)", "assay_type": "in vivo, Aedes aegypti", "conditions": "15 μL of diluted 4000 ppm master solution per well, about 1 day-old larvae, 3 days", "how_it_was_run": "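About 1-day-old Aedes larvae in liver-powder water were exposed to compound diluted from 4000 ppm DMSO master stocks in water:acetone. Plates held 3 days at room temperature under a non-evaporative lid; wells were then scored for mortality, 6 replicates per compound.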"}, "[4]": {"test_system": "Cabbage Looper (CL)", "assay": "Bioassays on CL, 128-well diet tray assay", "assay_type": "in vivo", "conditions": "Trichoplusia ni, 168 h, read-out: CL % Control (or Mortality) rating", "how_it_was_run": "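Second-instar larvae, one to five per well, were placed on artificial diet treated with 50 μg/cm^2 compound (in 90:10 acetone-water) and dried, with eight wells per compound. Trays were held at 25° C, 14:10 light-dark, for five to seven days. Percent mortality was scored per well and averaged.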"}},
  "data": [
    {"smiles": "CN(CCNC(=O)c1ccc(/C=C/C(c2cc(Cl)c(Cl)c(Cl)c2)C(F)(F)F)cc1C(F)(F)F)C(=O)OC(C)(C)C", "note": "(stereo not shown) [Compound C113, (E)-tert-butyl methyl(2-(4-(4,4,4-trifluoro-3-(3,4,5-trichlorophenyl)but-1-en-1-yl)-2-(trifluoromethyl)benzamido)ethyl)carbamate]", "values": [
      {"measurement": "mortality at 50 µg/cm2", "setting": "[1]", "result": "50 to 100", "unit": "%"},
      {"measurement": "mortality at 200 ppm", "setting": "[2]", "result": 0, "unit": "%"},
      {"measurement": "YFM % Control (or Mortality) rating", "setting": "[3]", "result": "A (80-100)"},
      {"measurement": "mortality at 50 µg/cm2", "setting": "[4]", "result": "50 to 100", "unit": "%"}
    ]}
  ]
}
